How the values were obtained:
HaCaT cells [1] = assay: In-vitro screening with MTT method, inhibition of proliferation of HaCaT cells; format: cell-based, human; conditions: about 48 hours incubation
Method: Compound No. 5 was dissolved in DMSO, and gradiently diluted with PBS to prepare solutions at concentration of 1000 μg/ml, 100 μg/ml, 10 μg/ml, 1 μg/ml, 0.1 μg/ml, and 0.01 μg/ml, respectively. Cis-platinum (CDDP) was used as positive control, and sample solutions were prepared with the same method. The sample solutions were added into a 96-well plate placed with the growth phase human immortalized keratinocyte (HaCaT) cells (Pharmacology Laboratory of Shanghai Institute of Pharmaceutical Industry), and were incubated for about 48 hours. The cell relative survival rate was determined by the MTT method, and calculated according to the following formula based on the light absorption value at […]. Cell relative survival rate=(Light absorption value of sample treatment group—background light absorption value)/(Light absorption value of DMSO treatment group—background light absorption value).

[2] = tested on: mouse vaginal epidermal cells; assay: Effect on mitosis of mouse vaginal epidermal cells; format: in vivo; conditions: cream 5% w/w, 25 μl intravaginal once daily, 3 days, estradiol-treated mice, n = 6
Method: Except for the saline control group, sexually mature female mice were injected with estradiol subcutaneously at a dosage of 35 mg/kg for 3 successive days. On the fourth day, in-estrus mice were selected with vaginal smear. The mice were randomly divided into several groups: (a) saline control group, saline was used in each administration; (b) blank cream group, blank cream was used in each administration; (c) calcipotriol control group, calcipotriol in cream (5% w/w) was used in each administration; (d) four testing groups, Compound No 5 in cream at concentration of 0.5%, 1%, 2%, and 4% (w/w), respectively, was used in each application. 25 μl corresponding treatment was injected into the vagina of the mice once daily for 3 successive days. Colchicine (15 mg/Kg) was intraperitoneally injected 2 hours after the last dosing. The mice were sacrificed 6 hours after the injection of colchicine. The vaginal tissue was taken out for pathological examination. The number of mitosis in one hundred basal cells was counted, which was named as the mitotic index.

mouse tail epidermis = assay: Effect on mouse tail epidermis (granular layer of tail scales); format: in vivo; conditions: cream 5% (w/w), 100 μl once daily, 7 days, female mice, n = 10
Method: 70 female mice were randomly divided into several groups: (a) saline control group, saline was used in each administration; (b) blank cream group, blank cream was used in each administration; (c) calcipotriol control group, calcipotriol in cream (5% w/w) was used in each administration; (d) four testing groups, Compound No 5 in cream at 0.5%, 1%, 2%, and 4% (w/w), respectively, was used in each administration. 100 μl of corresponding treatment was applied to the same position on the tail of the mice once daily for seven successive days. The mice were sacrificed 1 hour after the last application. The treated skin parts were taken for pathological examination, and the tail scales of each mouse was assessed under a microscope. The number of scales having a granular layer in every 100 scales was counted, and the result was expressed as percentage.

guinea pig ear epidermis = assay: Propranolole hydrochloride-induced psoriasis in guinea pig model; format: in vivo; conditions: cream 5% w/w, 200 μl on both ears twice daily, 7 days
Method: Except for those in Saline control group, guinea pigs were treated with propranolole hydrochloride cream (5% w/w, 200 μl) uniformly applied on the back of both ears twice daily for four successive weeks. After four weeks, the […] were divided into several groups, namely, blank cream group, calcipotriol group, and four testing cream groups with Compound 5 at concentration of 0.5%, 1%, 2%, and 4% (w/w)), respectively. The guinea pigs in Saline control group were treated with saline on the back of both ears; the guinea pigs in other groups were treated with corresponding cream on the back of both ears (200 μl) twice daily for 7 successive days. The guinea pigs were examined during the experiment period and sacrificed 1 hour after the last dosing.

HaCaT cells [3] = assay: Morphological examination of the effect on HaCaT cell differentiation; format: cell-based, human; conditions: 48 h incubation, immunohistochemical staining
Method: HaCaT cells were cultured in DMEM culture medium containing 10% FBS under 37° C. and 5% CO2 concentration. When reaching 80% of the culture bottle area and after digestion by 0.25% trypsin, the cells were adjusted to a concentration of 4×10^4/ml and moved to a 6-well plate respectively (containing sterilized slide). Compound solutions were added. The cells were applied to the corresponding wells, and a blank control group (saline) was set. Both the sample groups and the control group were placed in a cell incubator at 37° C. Immumohistochemical staining was conducted after incubation at 48 h.
The imagine in FIG. 1A is dark brown, indicating large amount of keratin is present. […] Compound No. 5 underwent cornification (positive result).

[4] = tested on: chick chorioallantoic membrane; assay: Chick chorioallantoic membrane (CAM) angiogenesis model; format: in vivo, chicken; conditions: 4.0 μg/egg, 48 h
Method: Fresh eggs were incubated for 6 successive days under 37° C. and 50% humidity. On the 6th day, live eggs were identified and taken out for window-opening. First, the chorioallantoic membrane was located with illumination. Droplets of Compound No. […] After air dry, the filter paper was placed on the chorioallantoic membrane gently without contacting big vessels. The window was sealed with a transparent adhesive tape. The eggs were incubated for 48 hours continuously. The transparent adhesive tape was then uncovered. The window was enlarged and photos were taken under a dissecting microscope (FIGS. 2 A-B). New vessels were counted based on the number of blood vessel branch points in each photo. Inhibitory rate=100−[(number of new blood vessels in treatment group at 24 h)/(number of new blood vessels in treatment group at 0 h)]/[(number of blood vessels in negative control group at 24 h)/(number of blood vessels in negative control group at 0 h)]×100%.

SMILES	Test Results, effect on HaCat cell differentiation (HaCaT cells [3])	further results
N.N.[Cl][Pt][Cl] [CDDP, Cis-platinum, reference compound]	–	HaCaT Cells IC50 (HaCaT cells [1]): 1.41 µg/mL
C=C1/C(=C\C=C2/CCC[C@]3(C)[C@@H]([C@H](C)/C=C/[C@@H](O)C4CC4)CC[C@@H]23)C[C@@H](O)C[C@@H]1O [Calcipotriol, calcipotriol, reference compound]	–	Mitotic cell number/total cell number (%) [2]: 15.33 ± 1.21 %; Scales quantity in granular layer * 100% (mouse tail epidermis): 50.50 ± 4.95 %; Epidermal thickness (μm) (guinea pig ear epidermis): 158.72 ± 2.93 μm
C[C@H](c1cccc(Cl)c1)N1CCn2cc(-c3c[nH]c4ncc(-c5ccccc5)cc34)cc2C1=O [Compound 2, (R)-2-(1-(3-chlorophenyl)ethyl)-7-(5-phenyl-1H-pyrrolo[2,3-b]pyridin-3-yl)-3,4-dihydropyrrolo[1,2-a]pyrazin-1(2H)-one]	Positive	–
C[C@H](c1cccc(Cl)c1)N1CCn2cc(-c3n[nH]c4ncc(-c5ccccc5)cc34)cc2C1=O [Compound 3, (R)-2-(1-(3-chlorophenyl)ethyl)-7-(5-phenyl-1H-pyrazolo[3,4-b]pyridin-3-yl)-3,4-dihydropyrrolo[1,2-a]pyrazin-1(2H)-one]	Positive	–
Cc1cnc(Nc2ccc(F)cc2Cl)nc1-c1cc2n(c1)CCN([C@H](C)c1cccc(Cl)c1)C2=O [Compound 6, (R)-7-(2-((2-chloro-4-fluorophenyl)amino)-5-methylpyrimidin-4-yl)-2-(1-(3-chlorophenyl)ethyl)-3,4-dihydropyrrolo[1,2-a]pyrazin-1(2H)-one]	Positive	–
Cc1cnc(Nc2ccc(F)cc2Cl)nc1-c1cc2n(c1)CCCN([C@H](CO)c1cccc(Cl)c1)C2=O [Compound 7, (S)-8-(2-((2-chloro-4-fluorophenyl)amino)-5-methylpyrimidin-4-yl)-2-(1-(3-chlorophenyl)-2-hydroxyethyl)-2,3,4,5-tetrahydro-1H-pyrrolo[1,2-a][1,4]diazepin-1-one]	Positive	–
Cc1cnc(Nc2ccc(F)cc2Cl)nc1-c1cc2n(c1)CCN([C@H](CO)c1ccc(Cl)cc1)C2=O [Compound 8, (S)-7-(2-((2-chloro-4-fluorophenyl)amino)-5-methylpyrimidin-4-yl)-2-(1-(4-chlorophenyl)-2-hydroxyethyl)-3,4-dihydropyrrolo[1,2-a]pyrazin-1(2H)-one]	Positive	–
Cc1cnc(Nc2ccc(F)cc2Cl)nc1-c1cc2n(c1)CCN([C@H](CO)c1cccc(F)c1)C2=O [Compound 9, (S)-7-(2-((2-chloro-4-fluorophenyl)amino)-5-methylpyrimidin-4-yl)-2-(1-(3-fluorophenyl)-2-hydroxyethyl)-3,4-dihydropyrrolo[1,2-a]pyrazin-1(2H)-one]	Positive	–
Cc1cnc(Nc2ccc(F)cc2Cl)nc1-c1cc2n(c1)CCN([C@H](CO)c1ccc(F)cc1)C2=O [Compound 10, (S)-7-(2-((2-chloro-4-fluorophenyl)amino)-5-methylpyrimidin-4-yl)-2-(1-(4-fluorophenyl)-2-hydroxyethyl)-3,4-dihydropyrrolo[1,2-a]pyrazin-1(2H)-one]	Positive	–
Cc1cnc(Nc2ccc(N3CCNCC3)cc2Cl)nc1-c1cc2n(c1)CCN([C@H](CO)c1cccc(Cl)c1)C2=O [Compound 11, (S)-7-(2-((2-chloro-4-(piperazin-1-yl)phenyl)amino)-5-methylpyrimidin-4-yl)-2-(1-(3-chlorophenyl)-2-hydroxyethyl)-3,4-dihydropyrrolo[1,2-a]pyrazin-1(2H)-one]	Positive	–
Cc1cnc(Nc2ccc(C3CCNCC3)cc2Cl)nc1-c1cc2n(c1)CCN([C@H](CO)c1cccc(Cl)c1)C2=O [Compound 12, (S)-7-(2-((2-chloro-4-(piperidin-4-yl)phenyl)amino)-5-methylpyrimidin-4-yl)-2-(1-(3-chlorophenyl)-2-hydroxyethyl)-3,4-dihydropyrrolo[1,2-a]pyrazin-1(2H)-one]	Positive	–
Cc1cnc(Nc2ccc(C3CCN(C(C)C)CC3)cc2Cl)nc1-c1cc2n(c1)CCN([C@H](CO)c1cccc(Cl)c1)C2=O [Compound 13, (S)-7-(2-((2-chloro-4-(1-isopropylpiperidin-4-yl)phenyl)amino)-5-methylpyrimidin-4-yl)-2-(1-(3-chlorophenyl)-2-hydroxyethyl)-3,4-dihydropyrrolo[1,2-a]pyrazin-1(2H)-one]	Positive	–
Cc1cnc(Nc2ccc(N3CCN(S(C)(=O)=O)CC3)cc2Cl)nc1-c1cc2n(c1)CCN([C@H](CO)c1cccc(Cl)c1)C2=O [Compound 16, (S)-7-(2-((2-chloro-4-(4-(methylsulfonyl)piperazin-1-yl)phenyl)amino)-5-methylpyrimidin-4-yl)-2-(1-(3-chlorophenyl)-2-hydroxyethyl)-3,4-dihydropyrrolo[1,2-a]pyrazin-1(2H)-one]	Positive	–
Cc1cnc(Nc2ccc(F)cc2)nc1-c1cc2n(c1)CCN([C@H](CO)c1cccc(Cl)c1)C2=O [Compound 17, (S)-2-(1-(3-chlorophenyl)-2-hydroxyethyl)-7-(2-((4-fluorophenyl)amino)-5-methylpyrimidin-4-yl)-3,4-dihydropyrrolo[1,2-a]pyrazin-1(2H)-one]	Positive	–
Cc1cnc(NC2CCOCC2)nc1-c1cc2n(c1)CCN(C(c1ccc(Cl)c(F)c1)c1cnn(C)c1)C2=O (centres unmarked) [Compound 19, 2-((4-chloro-3-fluorophenyl)(1-methyl-1H-pyrazol-4-yl)methyl)-7-(5-methyl-2-((tetrahydro-2H-pyran-4-yl)amino)pyrimidin-4-yl)-3,4-dihydropyrrolo[1,2-a]pyrazin-1(2H)-one]	Positive	–
Cc1cnc(NC2CCCCC2)nc1-c1cc2n(c1)CCN([C@H](CO)c1cccc(Cl)c1)C2=O [Compound 20, (S)-2-(1-(3-chlorophenyl)-2-hydroxyethyl)-7-(2-(cyclohexylamino)-5-methylpyrimidin-4-yl)-3,4-dihydropyrrolo[1,2-a]pyrazin-1(2H)-one]	Positive	–
CNC(=O)c1cc(Oc2ccc(NC(=O)Nc3ccc(Cl)c(C(F)(F)F)c3)cc2)ccn1 [Sorafeni, Sorafenib, reference compound]	–	Number of new blood vessels 48 h ([4]; n = 3): 18.17 ± 7.60; Inhibitory rate (%) ([4]; versus PBS group): 77.27%

Source: US10238657B2, “Heterocyclic compounds for treating psoriasis” (JS INNOPHARM (SHANGHAI LTD.), priority 2015, dated 2019)
